# From patent US11976068B2 (CHIMERIX, INC., priority 2015, dated 2024)
# Legend:
# advanced solid tumors = experiment: Phase I trial, tumor response (RECIST); format: in vivo, human
# Description: Tumor responses were assessed using RECIST every 2 cycles.
# human BCRP = biological target: T1, human BCRP (Homo sapiens, UniProt Q9UNQ0); experiment: BCRP inhibition, bidirectional permeability of prazosin in MDCKII-BCRP monolayers; conditions: at 200 micromolar
# T1 sequence (Q9UNQ0 1-655): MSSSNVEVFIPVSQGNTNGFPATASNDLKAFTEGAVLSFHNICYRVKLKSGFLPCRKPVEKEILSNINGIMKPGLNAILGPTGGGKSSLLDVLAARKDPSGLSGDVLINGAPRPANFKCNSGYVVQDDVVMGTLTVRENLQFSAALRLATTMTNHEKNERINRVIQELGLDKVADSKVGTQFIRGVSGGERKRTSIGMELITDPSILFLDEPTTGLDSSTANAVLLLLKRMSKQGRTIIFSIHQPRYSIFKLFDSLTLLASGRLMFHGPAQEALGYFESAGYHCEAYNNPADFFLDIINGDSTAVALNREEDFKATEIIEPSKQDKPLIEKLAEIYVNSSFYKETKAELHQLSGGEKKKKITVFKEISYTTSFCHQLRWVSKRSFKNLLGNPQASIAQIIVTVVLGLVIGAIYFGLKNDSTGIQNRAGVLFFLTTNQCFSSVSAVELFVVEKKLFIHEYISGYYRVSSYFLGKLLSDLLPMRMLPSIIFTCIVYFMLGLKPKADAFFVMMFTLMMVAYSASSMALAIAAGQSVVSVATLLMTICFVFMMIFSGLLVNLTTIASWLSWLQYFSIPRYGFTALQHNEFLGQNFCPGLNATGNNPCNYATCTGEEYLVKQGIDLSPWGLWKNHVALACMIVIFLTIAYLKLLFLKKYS
# [1] = test system: human colon cancer cell line (HCT116), breast tumor cell line (MDA-MB-231), human primary glioblastoma cell line (U87); experiment: Cell viability, tumor cells (FIG. 1)
compound,measurement,setting,value
"Cc1ccccc1CN1C(=O)C2=C(CCN(Cc3ccccc3)C2)N2CCN=C12 [ONC201, 7-benzyl-4-(2-methylbenzyl)-2,4,6,7,8,9-hexahydroimidazo [1,2-a]pyrido[3,4-e]pyrimidin-5(1H)-one]",Time on Study,"advanced solid tumors; Pat # 1, NSCLC, 125 mg, 4 doses",12 weeks
same,Time on Study,"advanced solid tumors; Pat # 2, Appendiceal cancer, 250 mg, 4 doses",12 weeks
same,Time on Study,"advanced solid tumors; Pat # 3, Uterine cancer, 375 mg, 2 doses",6 weeks
same,Time on Study,"advanced solid tumors; Pat # 4, Renal cancer, 500 mg, 2 doses",6 weeks
same,Time on Study,"advanced solid tumors; Pat # 5, Breast cancer, 625 mg, 2 doses",6 weeks
same,Time on Study,"advanced solid tumors; Pat # 6, Prostate adenocarcinoma, 625 mg, 9 doses",27 weeks
same,Time on Study,"advanced solid tumors; Pat # 7, Small cell lung cancer, 625 mg, 2 doses",6 weeks
same,Time on Study,"advanced solid tumors; Pat # 8, Colon adenocarcinoma, 625 mg, 4 doses",12 weeks
same,Time on Study,"advanced solid tumors; Pat # 9, Spindle cell sarcoma, 625 mg, 2 doses",6 weeks
same,Time on Study,"advanced solid tumors; Pat # 10, Ovarian, 625 mg, 1 dose",3 weeks
same,decrease of multiple nodes,"advanced solid tumors; Patient #3, advanced clear cell endometrial cancer, mixed response with new nodes",> 30%
same,symptom relief,"advanced solid tumors; Patient #4, renal cancer and bone metastasis with debilitating pain in the clavicle",relief from their clavicular pain
same,patients with stable disease,"advanced solid tumors; dose escalation phase, 10 patients",Eight of 10
same,inhibitor of BCRP,human BCRP,inhibitor
same,viability at 5000 µg/mL,"[1]; Homo sapiens, 72 h, read-out: viability of tumor cells",< 25%
same,viability of tumor cells,"[1]; about 1-5 mg/mL compound (1), 72 hours",≤ 50%
